According to US9060952B2, “Synergistic preservative blends” (LONZA LTD., priority 2008, dated 2015):
Read-outs that look alike come from different tables or passages of the source. Values belong to the compound of their own block, whether it stands above or below them.

What was measured:
Test in all cases: Minimum inhibitory concentration (MIC), broth dilution
S. aureus ATCC 6538 = test system: S. aureus ATCC 6538; design: species or system Staphylococcus aureus; details: for MIC: Staphylococcus aureus
Method: (§1) Minimum inhibitory concentrations (MIC) were determined for individual components and binary formulations as follows. Individual bacterial suspensions of S. aureus (gram positive), E. coli and P. aeruginosa (both gram negative) and individual fungal suspensions of C. albicans and A. niger were prepared as described in Example 1. Each individual suspension was standardized with PBDW to yield a ˜10^8 CFU/mL or ˜10^7 cells/mL for the individual bacteria and fungi, respectively.
(§2) The individual components and binary formulations were diluted in either DI water or propylene glycol (as appropriate for solubility) to yield a 10,000 ppm total starting active solution. From the 10,000 ppm solution, a 1:9 dilution was made in sterile Nutrient Broth to yield a 1,000 ppm active solution. Five mL of the 1,000 ppm dilution was transferred to five mL of sterile Nutrient Broth (NB) to yield a 500 ppm active solution. This dilution scheme was repeated down to 3.90 ppm active. The same dilutions were made in sterile Sabouraud Dextrose Broth (SDB) for the fungal MIC testing. The series of nine active solutions (3.9 ppm˜1000 ppm) was prepared for each of the five microorganisms to be tested.
(§3) From the E. coli suspension, 0.1 mL was added to each of the nine, 5-mL active solutions in NB. Each tube was mixed thoroughly. This was repeated for each of the bacterial suspensions. Similarly, 0.1 mL of the C. albicans suspension was added to each of the nine, 5-mL active solutions in SDB. This was repeated with A. niger in a separate set of dilutions. Each tube was mixed thoroughly. Controls were prepared for each organism by inoculating 5 mL of NB or SDB, as appropriate. All three sets of bacterial tubes were incubated at 35° C. for 48 hours and the two sets of fungal tubes were incubated at 30° C. for 72 and 120 hours. At the end of the incubation period, the tubes were mixed and visually inspected for turbidity compared to the control. The lowest concentration with a lack of turbidity was recorded as the Minimum Inhibitory Concentration (MIC).
(§4) The synergism value is (QA/Qa+QB/Qb). QA is the concentration of component A in the mixture, Qa is the concentration of component A applied singly, QB is the concentration of component B in the mixture, Qb is the concentration of component B applied singly. When the synergism value is less than one, the mixture is synergistic. Values for (QA/Qa+QB/Qb) of 1 and greater than 1 represent an additive effect and an antagonistic effect, respectively.

P. aeruginosa ATCC 9027 = test system: P. aeruginosa ATCC 9027; design: species or system Pseudomonas aeruginosa; details: for MIC: Pseudomonas aeruginosa
Method: as §1, §2, §3, §4

E. coli ATCC 8739 = test system: E. coli ATCC 8739; design: species or system Escherichia coli; details: for MIC: Escherichia coli
Method: as §1, §2, §3, §4

A. niger ATCC 16404 = test system: A. niger ATCC 16404; design: species or system Aspergillus niger
Method: as §1, §2
(§5) From the E. coli suspension, 0.1 mL was added to each of the nine, 5-mL active solutions in NB. […] The lowest concentration with a lack of turbidity was recorded as the Minimum Inhibitory Concentration (MIC). […]

C. albicans ATCC 10231 = test system: C. albicans ATCC 10231; design: species or system Candida albicans
Method: as §1, §2, §5

Structure (SMILES): CCCCCCC(O)CO (stereo not shown) [Caprylyl Glycol]
- Qa, concentration of component A applied singly (MIC) (S. aureus ATCC 6538; S. aureus): >1000 ppm
- Qa, concentration of component A applied singly (MIC) (P. aeruginosa ATCC 9027; P. aeruginosa): >1000 ppm
- Qa, concentration of component A applied singly (MIC) (E. coli ATCC 8739; E. coli): 1000 ppm

Structure (SMILES): CC(=O)C1C(=O)C=C(C)OC1=O (stereo not shown) [Dehydroacetic acid]
- MIC (S. aureus ATCC 6538; ATCC6538, read-out: Qb, concentration of component B applied singly (MIC)): 500 µg/mL
- MIC (P. aeruginosa ATCC 9027; ATCC9027, read-out: Qb, concentration of component B applied singly (MIC)): 500 µg/mL
- MIC (E. coli ATCC 8739; ATCC8739, read-out: Qb, concentration of component B applied singly (MIC)): 500 µg/mL

Structure (SMILES): Cn1sccc1=O [Methylisothiazolinone]
- Qa, concentration of component A applied singly (MIC) (S. aureus ATCC 6538; S. aureus): 250 ppm
- Qa, concentration of component A applied singly (MIC) (P. aeruginosa ATCC 9027; P. aeruginosa): 62.5 ppm
- Qa, concentration of component A applied singly (MIC) (E. coli ATCC 8739; E. coli): 62.5 ppm
- Qa, concentration of component A applied singly (MIC) (A. niger ATCC 16404): 500 ppm
- Qa, concentration of component A applied singly (MIC) (C. albicans ATCC 10231): 250 ppm

Further lines, results first:

- Qb, concentration of component B applied singly (MIC) (S. aureus ATCC 6538; S. aureus): 62.5 ppm
- Qb, concentration of component B applied singly (MIC) (P. aeruginosa ATCC 9027; P. aeruginosa): 62.5 ppm
- Qb, concentration of component B applied singly (MIC) (E. coli ATCC 8739; E. coli): 62.5 ppm
- Qb, concentration of component B applied singly (MIC) (A. niger ATCC 16404): 62.5 ppm
- Qb, concentration of component B applied singly (MIC) (C. albicans ATCC 10231): 62.5 ppm
Structure (SMILES): Cc1cc(CC(C)CC(C)(C)C)n(O)c(=O)c1.NCCO (stereo not shown) [Piroctone Olamine]

- MIC (S. aureus ATCC 6538; ATCC6538, S. aureus, read-out: Qa, concentration of component A applied singly (MIC)): > 1000 µg/mL
- MIC (P. aeruginosa ATCC 9027; ATCC9027, P. aeruginosa, read-out: Qa, concentration of component A applied singly (MIC)): > 1000 µg/mL
- MIC (E. coli ATCC 8739; ATCC8739, E. coli, read-out: Qa, concentration of component A applied singly (MIC)): > 1000 µg/mL
Structure (SMILES): CCCCCCCCCCCO [Undecanol]
